Data reported in patent publication US20160184356A1, “ARSENIC-BASED TREATMENT OF CANCERS AND INFLAMMATORY DISORDERS” (STC.UNM, priority 2013, published 2016).
Read-outs that look alike come from different tables or passages of the source.

Tests used:
[1] = target: T1, APTX (C2H2) zinc finger peptide (Homo sapiens, UniProt Q7Z2E3); type: binding
T1 construct: purchased Genemed Synthesis Inc. (San Antonio, Tex.); host or cells: chemical synthesis
T1 sequence (Q7Z2E3 330-356 limits assumed): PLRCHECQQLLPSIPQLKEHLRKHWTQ

[2] = target: T2, XPA (C4) zinc finger peptide (Homo sapiens, UniProt P23025); type: binding
T2 construct: purchased Genemed Synthesis Inc. (San Antonio, Tex.); host or cells: chemical synthesis

[3] = target: T3, PARP-1 (C3H1) zinc finger peptide (Homo sapiens, UniProt P09874, DEL32-46); type: binding
T3 construct: purchased Genemed Synthesis Inc. (San Antonio, Tex.); host or cells: chemical synthesis
T3 sequence (P09874 with tags, fused parts or gaps DEL32-46 limits assumed): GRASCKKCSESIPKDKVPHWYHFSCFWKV

[4] = target: T2, XPA (C4) zinc finger peptide; type: binding; remark: listed apart in the source
[5] = target: T3, PARP-1 (C3H1) zinc finger peptide; type: binding; remark: listed apart in the source
[6] = target: T1, APTX (C2H2) zinc finger peptide; type: binding; remark: listed apart in the source
[7] = target: T2, XPA (C4) zinc finger peptide; type: binding; remark: listed apart in the source
PARP-1 protein = target: T4, PARP-1 protein (Homo sapiens, UniProt P09874); type: cell-based
T4 construct: APTX, PARP-1, and XPA protein were immunoprecipitated from cell extracts using corresponding antibodies; endogenous in cells; host or cells: HaCaT human keratinocytes

XPA protein = target: T5, XPA protein (Homo sapiens, UniProt P23025); type: cell-based
T5 construct: APTX, PARP-1, and XPA protein were immunoprecipitated from cell extracts using corresponding antibodies; endogenous in cells; host or cells: HaCaT human keratinocytes

[8] = target: T2, XPA (C4) zinc finger peptide; type: binding; remark: listed apart in the source
PARP [9] = target: T6, PARP (Homo sapiens, UniProt P09874); parameters: host or cells: urothelial cells; settings: 1 µM; cited from earlier work
Target sequence in this assay (P09874 2-1014 limits assumed): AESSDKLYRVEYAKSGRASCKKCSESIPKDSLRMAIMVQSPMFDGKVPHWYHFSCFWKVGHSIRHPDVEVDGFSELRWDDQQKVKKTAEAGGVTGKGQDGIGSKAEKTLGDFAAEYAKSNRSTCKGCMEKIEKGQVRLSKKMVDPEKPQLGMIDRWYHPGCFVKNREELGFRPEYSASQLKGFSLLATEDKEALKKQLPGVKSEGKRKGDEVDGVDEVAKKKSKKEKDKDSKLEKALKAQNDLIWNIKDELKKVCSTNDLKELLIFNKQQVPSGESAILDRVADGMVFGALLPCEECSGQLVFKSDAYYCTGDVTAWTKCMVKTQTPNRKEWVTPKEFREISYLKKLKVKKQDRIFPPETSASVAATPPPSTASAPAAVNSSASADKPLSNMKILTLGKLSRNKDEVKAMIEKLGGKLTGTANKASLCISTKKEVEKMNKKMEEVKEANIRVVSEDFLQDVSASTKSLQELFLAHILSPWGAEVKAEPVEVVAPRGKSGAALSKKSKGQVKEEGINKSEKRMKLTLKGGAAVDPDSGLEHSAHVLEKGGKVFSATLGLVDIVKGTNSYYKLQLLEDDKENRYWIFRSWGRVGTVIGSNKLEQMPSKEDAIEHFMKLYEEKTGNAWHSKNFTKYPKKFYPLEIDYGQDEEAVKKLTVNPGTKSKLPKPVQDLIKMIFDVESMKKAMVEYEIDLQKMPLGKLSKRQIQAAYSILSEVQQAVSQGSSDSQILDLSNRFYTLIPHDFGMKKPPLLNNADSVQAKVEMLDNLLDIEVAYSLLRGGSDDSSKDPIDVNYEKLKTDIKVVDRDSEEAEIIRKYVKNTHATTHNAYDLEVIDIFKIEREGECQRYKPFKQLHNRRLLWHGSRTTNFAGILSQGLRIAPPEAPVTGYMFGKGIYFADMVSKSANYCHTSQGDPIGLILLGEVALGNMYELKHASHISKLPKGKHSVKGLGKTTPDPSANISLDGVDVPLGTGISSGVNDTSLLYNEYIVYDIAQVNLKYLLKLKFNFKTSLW

[10] = target: T3, PARP-1 (C3H1) zinc finger peptide; type: binding; remark: listed apart in the source
APTX protein = target: T7, APTX protein (Homo sapiens, UniProt Q7Z2E3); type: cell-based
T7 construct: APTX, PARP-1, and XPA protein were immunoprecipitated from cell extracts using corresponding antibodies; endogenous in cells; host or cells: HaCaT human keratinocytes

[11] = target: T1, APTX (C2H2) zinc finger peptide; type: binding; remark: listed apart in the source
[12] = target: T1, APTX (C2H2) zinc finger peptide; type: binding; remark: listed apart in the source
[13] = target: T3, PARP-1 (C3H1) zinc finger peptide; type: binding; remark: listed apart in the source
PARP [14] = target: T6, PARP; parameters: host or cells: human keratinocytes; settings: cited from earlier work
Target sequence in this assay (P09874 2-1014): as the sequence (P09874 2-1014 limits assumed) above

C2H2 complex = settings: cited from earlier work
C3H1 and C4 complexes = settings: cited from earlier work

T2 sequence (P23025 101-137 limits assumed): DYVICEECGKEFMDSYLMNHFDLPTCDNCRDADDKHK
T4 sequence (P09874 whole entry): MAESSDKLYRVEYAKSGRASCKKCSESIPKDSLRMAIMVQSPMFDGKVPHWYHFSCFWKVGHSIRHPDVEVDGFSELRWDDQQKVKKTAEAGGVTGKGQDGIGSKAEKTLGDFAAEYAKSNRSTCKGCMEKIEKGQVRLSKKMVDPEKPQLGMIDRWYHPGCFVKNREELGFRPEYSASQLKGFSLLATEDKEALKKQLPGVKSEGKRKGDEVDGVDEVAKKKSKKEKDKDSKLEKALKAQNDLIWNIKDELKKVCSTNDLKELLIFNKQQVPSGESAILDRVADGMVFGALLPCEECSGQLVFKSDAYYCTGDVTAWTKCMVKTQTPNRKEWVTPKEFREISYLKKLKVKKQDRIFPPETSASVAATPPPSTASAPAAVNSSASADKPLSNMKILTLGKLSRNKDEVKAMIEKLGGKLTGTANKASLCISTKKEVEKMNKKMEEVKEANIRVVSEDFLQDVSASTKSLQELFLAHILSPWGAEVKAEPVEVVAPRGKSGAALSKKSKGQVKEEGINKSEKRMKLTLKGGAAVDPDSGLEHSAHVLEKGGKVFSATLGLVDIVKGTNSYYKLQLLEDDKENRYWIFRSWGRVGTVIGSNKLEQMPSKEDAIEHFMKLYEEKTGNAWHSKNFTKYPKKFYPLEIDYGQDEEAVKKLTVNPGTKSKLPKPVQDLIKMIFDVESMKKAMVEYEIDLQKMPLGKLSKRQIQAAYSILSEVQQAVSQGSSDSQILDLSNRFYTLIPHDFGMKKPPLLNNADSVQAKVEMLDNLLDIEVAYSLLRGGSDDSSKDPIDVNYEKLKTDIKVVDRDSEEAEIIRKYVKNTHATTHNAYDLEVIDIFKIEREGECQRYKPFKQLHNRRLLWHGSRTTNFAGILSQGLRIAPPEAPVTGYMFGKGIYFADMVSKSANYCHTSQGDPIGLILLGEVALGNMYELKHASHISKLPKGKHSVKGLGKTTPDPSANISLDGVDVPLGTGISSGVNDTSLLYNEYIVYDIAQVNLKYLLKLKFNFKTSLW
T5 sequence (P23025 whole entry): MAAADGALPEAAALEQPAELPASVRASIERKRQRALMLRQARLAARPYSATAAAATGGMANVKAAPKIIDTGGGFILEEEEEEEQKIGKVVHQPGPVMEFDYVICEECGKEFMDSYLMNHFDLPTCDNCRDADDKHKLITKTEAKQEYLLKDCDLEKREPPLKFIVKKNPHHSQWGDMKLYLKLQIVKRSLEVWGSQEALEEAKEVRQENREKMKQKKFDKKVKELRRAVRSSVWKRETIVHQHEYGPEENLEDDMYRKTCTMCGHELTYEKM
T7 sequence (Q7Z2E3 whole entry): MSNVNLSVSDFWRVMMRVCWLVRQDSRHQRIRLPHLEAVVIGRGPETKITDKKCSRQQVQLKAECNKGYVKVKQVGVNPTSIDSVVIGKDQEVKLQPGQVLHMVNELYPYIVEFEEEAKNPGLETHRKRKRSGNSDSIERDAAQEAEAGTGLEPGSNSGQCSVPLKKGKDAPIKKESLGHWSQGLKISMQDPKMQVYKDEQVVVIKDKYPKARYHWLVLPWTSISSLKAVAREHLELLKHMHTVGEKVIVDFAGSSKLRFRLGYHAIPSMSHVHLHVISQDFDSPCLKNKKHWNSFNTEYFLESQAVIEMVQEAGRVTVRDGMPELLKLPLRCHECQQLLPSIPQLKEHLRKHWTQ

| Compound | binding to zinc finger peptide by MALDI-TOF mass spectrometry [1] | As—S bond formation (A270) [2] | As—S bond formation (A270) [3] | binding to zinc finger peptide by MALDI-TOF mass spectrometry [4] | cobalt binding (absorbance at 660 nm) after incubation with arsenical [5] | cobalt binding (absorbance at 660 nm) after incubation with arsenical [6] | cobalt binding (absorbance at 660 nm) after incubation with arsenical [7] | zinc content in protein (PARP-1 protein) | zinc content in protein (XPA protein) | tertiary structure change (fluorescent intensity at 350 nm) [8] | PARP activity inhibition (PARP [9]) | tertiary structure change (fluorescent intensity at 350 nm) [10] | zinc content in protein (APTX protein) | tertiary structure change (fluorescent intensity at 350 nm) [11] | As—S bond formation (A270) [12] | binding to zinc finger peptide by MALDI-TOF mass spectrometry [13] | PARP activity inhibition (PARP [14]) | stability of arsenite bound complex in kinetic studies (C2H2 complex) | stability of arsenite bound complex in kinetic studies (C3H1 and C4 complexes) |
| --- | --- | --- | --- | --- | --- | --- | --- | --- | --- | --- | --- | --- | --- | --- | --- | --- | --- | --- | --- |
| C[As](O)O [MMA(III), monomethylarsonous acid] | bound to APTX zinc finger peptide | A270 values increased for all three types of zinc fingers | A270 values increased for all three types of zinc fingers | bound to the XPA zinc finger | concentration-dependent decrease in cobalt binding to all three peptides | concentration-dependent decrease in cobalt binding to all three peptides | concentration-dependent decrease in cobalt binding to all three peptides | caused zinc loss from all three configurations of zinc finger proteins | caused zinc loss from all three configurations of zinc finger proteins | alters the tertiary structure of all 3 conformations of zinc fingers | about 30% | alters the tertiary structure of all 3 conformations of zinc fingers | caused zinc loss from all three configurations of zinc finger proteins | decreased in a concentration-dependent manner | A270 values increased for all three types of zinc fingers | also bound to the PARP-1 zinc finger | – | – | – |
| sodium arsenite | showed no binding to the APTX zinc finger | A270 values increased in a concentration-dependent manner | A270 values increased in a concentration-dependent manner | bound with PARP-1 and XPA zinc finger peptides | decreased subsequent cobalt binding in a concentration-dependent manner | – | decreased subsequent cobalt binding in a concentration-dependent manner | selectively displaced zinc from PARP-1 and XPA proteins | selectively displaced zinc from PARP-1 and XPA proteins | selectively disrupted the tertiary structure of C3H1 and C4 zinc fingers | – | selectively disrupted the tertiary structure of C3H1 and C4 zinc fingers | selectively displaced zinc from PARP-1 and XPA proteins | showed no effect | – | bound with PARP-1 and XPA zinc finger peptides | up to 90% | 1.29 min | 155 min |
